According to patent publication US4112219A, “Acyl derivatives of antibiotic BM123γ” (American Cyanamid Company, priority 1977, dated 1978):
“And” between values parts separate entries of the source, which are not always exact repeats. Equal entries are not always repeated.

System: Escherichia coli US311
Assay: in vivo activity against Escherichia coli US311 in mice (systemic lethal infection, single subcutaneous dose)
Design: species or system Escherichia coli US311 in Carworth Farms CF-1 mice
Conditions: infected intraperitoneally with lethal dose of E. coli US311
Source text: The starting material for the acylation procedure has been defined hereinabove as antibiotic BM123γ having formula (IV). When R' is structure (II) in formula (IV), then the antibiotic is BM123γ1 and when R' is structure (III) in formula (IV), then the antibiotic is BM123γ2. […] The preparation and properties of trans-BM123γ1 and trans-BM123γ2 are disclosed in U.S. Pat. No. 4,007,167 whereas the preparation and properties of cis-BM123γ1 and cis-BM123γ2 are set forth in U.S. Pat. No. 4,018,972. The term cis-BM123γ refers to a mixture in any proportion of cis-BM123γ1 and cis-BM123γ2 whereas the term trans-BM123γ refers to a mixture in any proportion of trans-BM123γ1 and trans-BM123γ2. The expression antibiotic BM123γ refers to either cis-BM123γ or trans-BM123γ. […] These new substances show high in vivo antibacterial activity in mice against Escherichia coli US311 when administered by a single subcutaneous dose to groups of Carworth Farms CF-1 mice, weight about 20 grams, infected intraperitoneally with a lethal dose of this bacteria in a 10^-3 trypticase soy broth TSP dilution of a 5 hour TSP blood culture. In Table I below is set forth the in vivo activity of typical products of this invention (prepared by the procedure of Example 1 from the indicated activated ester which was prepared by the procedure of Example 2 or Example 3) against Escherichia coli US311 in mice. The activity is expressed in terms of the ED50 or the dose in mg./kg. of body weight required to protect 50% of the mice against E. coli. The derivative name in Table I indicates whether cis-BM123 or trans-BM123 was employed as starting material.

| Substance | ED50 (dose required to protect 50% of the mice against E. coli) |
| --- | --- |
| 1,4-Thiapyran(2)carbonyl-trans-BM123γ | 2.0 mg./kg. of Body Weight |
| 1-Naphthoyl-trans-BM123γ | 0.5 mg./kg. of Body Weight |
| 2,3,6-Trichlorobenzoyl-trans-BM123γ | 2.0 mg./kg. of Body Weight |
| 2,4-Dichlorobenzoyl-trans-BM123γ | 0.5 mg./kg. of Body Weight and 1.0 mg./kg. of Body Weight |
| 2,5-Dibromobenzoyl-trans-BM123γ | 2.0 mg./kg. of Body Weight |
| 2,6-Dimethoxybenzoyl-trans-BM123γ | 2.0 mg./kg. of Body Weight |
| 2-Furyl-trans-BM123γ | 1.0 mg./kg. of Body Weight |
| 2-Methylpropionyl-trans-BM123γ | 2.0 mg./kg. of Body Weight |
| 2-Napthyloxyacetyl-trans-BM123γ | 0.5 mg./kg. of Body Weight |
| 2-Thienyl-trans-BM123γ | 1.0 mg./kg. of Body Weight |
| 3,4,5-Trimethoxybenzoyl-trans-BM123γ | 2.0 mg./kg. of Body Weight |
| 3,4-Dichlorobenzoyl-trans-BM123γ | 0.5 mg./kg. of Body Weight and 1.0 mg./kg. of Body Weight |
| 3,4-Dimethylbenzoyl-trans-BM123γ | 2.0 mg./kg. of Body Weight |
| 3,5-Dichlorobenzoyl-trans-BM123γ | 0.5 mg./kg. of Body Weight |
| 3,5-Dinitrobenzoyl-trans-BM123γ | 1.0 mg./kg. of Body Weight |
| 3-Methoxy-2-naphthoyl-trans-BM123γ | 2.0 mg./kg. of Body Weight |
| 4-(p-Chlorophenylsulfonyl)-benzoyl-trans-BM123γ | 2.0 mg./kg. of Body Weight |
| 4-Carbethoxy-3,5-dimethoxybenzoyl-trans-BM123γ | 2.0 mg./kg. of Body Weight |
| 4-Ethyl-2,3-diketopiperazine-1-carbonyl-trans-BM123γ | 2.0 mg./kg. of Body Weight |
| 4-Fluoro-1-naphthoyl-trans-BM123γ | 1.0 mg./kg. of Body Weight |
| 4-Oxy-4H-thiapyran-3-yl-carbonyl-trans-BM123γ | 2.0 mg./kg. of Body Weight |
| 8-Bromo-1-napthoyl-trans-BM123γ | 1.5 mg./kg. of Body Weight |
| Benzoyl-trans-BM123γ | 4.0 mg./kg. of Body Weight |

| Substance | ED50 (dose required to protect 50% of the mice against E. coli) |
| --- | --- |
| Carbethoxyformyl-trans-BM123γ | 1.0 mg./kg. of Body Weight |
| Chlorodiphenylacetyl-trans-BM123γ | 2.0 mg./kg. of Body Weight |
| Cinnamoyl-trans-BM123γ | 2.0 mg./kg. of Body Weight |
| Cyclopropylcarbonyl-trans-BM123γ | 2.0 mg./kg. of Body Weight |
| Decanoyl-trans-BM123γ | 2.0 mg./kg. of Body Weight |
| Methoxyacetyl-trans-BM123γ | 2.0 mg./kg. of Body Weight |
| Pentachlorobenzoyl-trans-BM123γ | 2.0 mg./kg. of Body Weight |
| Pentafluorobenzoyl-trans-BM123γ | 0.5 mg./kg. of Body Weight |
| Phenoxyacetyl-trans-BM123γ | 1.0 mg./kg. of Body Weight |
| Propionyl-trans-BM123γ | 4.0 mg./kg. of Body Weight |
| Pyridine-n-oxide-2-carbonyl-trans-BM123γ | 2.0 mg./kg. of Body Weight |
| Trichloroacetyl-trans-BM123γ | 1.0 mg./kg. of Body Weight |
| Trimethylacetyl-trans-BM123γ | 1.0 mg./kg. of Body Weight |
| m-Bromobenzoyl-trans-BM123γ | 0.75 mg./kg. of Body Weight |
| m-Fluorobenzoyl-trans-BM123γ | 1.0 mg./kg. of Body Weight |
| m-Hydroxybenzoyl-trans-BM123γ | 1.5 mg./kg. of Body Weight |
| m-Mercaptobenzoyl-trans-BM123γ | 2.0 mg./kg. of Body Weight |
| m-Methylbenzoyl-trans-BM123γ | 1.0 mg./kg. of Body Weight |
| m-Phenoxybenzoyl-trans-BM123γ | 1.5 mg./kg. of Body Weight |
| o-Acetoxybenzoyl-trans-BM123γ | 2.0 mg./kg. of Body Weight |
| o-Benzoylbenzoyl-trans-BM123γ | 2.0 mg./kg. of Body Weight |
| o-Benzylbenzoyl-trans-BM123γ | 2.0 mg./kg. of Body Weight |
| o-Fluorobenzoyl-trans-BM123γ | 1.0 mg./kg. of Body Weight |

| Substance | ED50 (dose required to protect 50% of the mice against E. coli) |
| --- | --- |
| o-Hydroxybenzoyl-trans-BM123γ | 8.0 mg./kg. of Body Weight |
| o-Mercaptobenzoyl-trans-MB123γ | 2.0 mg./kg. of Body Weight |
| o-Methylbenzoyl-trans-BM123γ | 2.0 mg./kg. of Body Weight and 1.0 mg./kg. of Body Weight |
| p-Acetaminobenzoyl-trans-BM123γ | 2.0 mg./kg. of Body Weight |
| p-Acetylbenzoyl-trans-BM123γ | 2.0 mg./kg. of Body Weight |
| p-Biphenylcarbonyl-trans-BM123γ | 2.0 mg./kg. of Body Weight |
| p-Chlorobenzoyl-trans-BM123γ | 4.0 mg./kg. of Body Weight |
| p-Cyanobenzoyl-trans-BM123γ | 4.0 mg./kg. of Body Weight |
| p-Dimethylaminobenzoyl-trans-BM123γ | 2.0 mg./kg. of Body Weight |
| p-Ethoxybenzoyl-trans-BM123γ | 2.0 mg./kg. of Body Weight |
| p-Fluorobenzoyl-trans-BM123γ | 1.0 mg./kg. of Body Weight |
| p-Formylbenzoyl-trans-BM123γ | 2.0 mg./kg. of Body Weight |
| p-Hydroxybenzoyl-trans-BM123γ | 2.0 mg./kg. of Body Weight |
| p-Methoxybenzoyl-trans-BM123γ | 1.0 mg./kg. of Body Weight |
| p-Methylthiobenzoyl-trans-BM123γ | 4.0 mg./kg. of Body Weight |
| p-Nitrobenzoyl-trans-BM123γ | 0.5 mg./kg. of Body Weight |
| p-Sulfamylbenzoyl-trans-BM123γ | 0.5 mg./kg. of Body Weight |
| p-Trifluoromethoxybenzoyl:trans-BM123γ | 1.0 mg./kg. of Body Weight |
| p-Trifluoromethylbenzoyl-trans-BM123γ | 4.0 mg./kg. of Body Weight |
| p-t-Butylbenzoyl-trans-BM123γ | 4.0 mg./kg. of Body Weight |
| α-Bromopropionyl-trans-BM123γ | 2.0 mg./kg. of Body Weight |
| α-Phenoxypropionyl-trans-BM123γ | 2.0 mg./kg. of Body Weight and 1.0 mg./kg. of Body Weight |

Same assay, conditions: infected intraperitoneally with lethal dose of E. coli US311, listed as α-Phenyoxypropionyl-trans-BM123γ

| Substance | ED50 (dose required to protect 50% of the mice against E. coli) |
| --- | --- |
| α-Phenoxypropionyl-trans-BM123γ | 2.0 mg./kg. of Body Weight |
